According to the supplement of paper PMC10307832:

Legend:
[1] = compound: C1=CC2=C(C=C(C(=C2N=C1)O)N=NC3=CC4=C(C=C3)C=C(C=C4)S(=O)(=O)O)S(=O)(=O)O + NC(=O)Nc1cc(-c2cccc(F)c2)sc1C(=O)N[C@H]1CCCNC1 [AZD7762] (partner 0.2 µM); assay: relative viability (nuclei count vs DMSO), 5 days (fraction); higher = more cells survive
Procedure, shortened: (§1)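 Lung cancer cell lines in 1536-well plates got either a single drug or a fixed anchor-drug dose together with five library-drug doses (not always all listed) in √10 steps, by pin tool, on the day after seeding. Nuclei were counted after 5 days, and relative viability is the treated-to-vehicle ratio of nuclei counts. Values are medians of duplicate plates.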

[2] = compound: C1=CC2=C(C=C(C(=C2N=C1)O)N=NC3=CC4=C(C=C3)C=C(C=C4)S(=O)(=O)O)S(=O)(=O)O + O=C(CCCCCCC(=O)Nc1ccccc1)NO [Vorinostat] (partner 1 µM); assay: as above
Procedure, shortened: as §1

Cell Line	relative viability ([1]; first compound 0.08 µM)	relative viability ([1]; first compound 0.253 µM)	relative viability ([1]; first compound 0.8 µM)	relative viability ([1]; first compound 2.53 µM)	relative viability ([1]; first compound 8 µM)	relative viability ([2]; first compound 0.08 µM)	relative viability ([2]; first compound 0.253 µM)	relative viability ([2]; first compound 0.8 µM)	relative viability ([2]; first compound 2.53 µM)	relative viability ([2]; first compound 8 µM)
NCI-H1944	0.643	0.647	0.746	0.519	0.464	0.52	0.538	0.525	0.583	0.477
NCI-H1975	0.715	0.69	0.671	0.748	0.702	0.707	0.693	0.63	0.753	0.732
NCI-H1993	0.906	0.712	0.702	0.845	0.832	0.844	0.866	0.798	0.783	0.788
NCI-H2009						0.691	0.742	0.759	0.748	0.53
NCI-H2023						0.844	0.581	0.621	0.641	0.633
NCI-H2085	0.874	1.03	0.902	0.971	0.969	0.85	0.775	0.717	0.775	0.702
NCI-H2087	1.31	1.51	1.27	1.38	1.29	0.69	0.804	0.795	0.702	0.676
NCI-H2126	1.05	0.971	0.941	0.939	0.994	0.899	0.75	0.737	0.809	0.851
NCI-H2170	1.02	1.04	0.89	1.01	0.914	0.975	0.811	0.862	0.914	0.784
NCI-H2228						0.966	0.518	0.468	0.652	0.589
NCI-H2342	0.603	0.541	0.463	0.462	0.582	0.834	0.709	0.72	0.695	0.688
NCI-H2347	0.838	0.734	0.846	1.01	0.705	0.691	0.621	0.59	0.408	0.729
NCI-H2405	0.898	0.784	0.738	0.77	0.732	1.01	0.937	0.942	1.02	0.932
NCI-H3122	0.967	0.976	0.975	1.03	0.962	1.16	1.04	0.96	0.814	0.948
PC-3 [JPC-3]	0.899	0.808	0.817	0.778	0.71	0.648	0.819	0.751	0.843	0.709
PC-14	0.353	0.294	0.305	0.375	0.328	0.815	0.83	0.816	0.745	0.752
SK-LU-1						0.766	0.725	0.753	0.719	0.697
SK-MES-1						1.16	1.12	0.985	1.06	1.17
SW 1573						0.92	0.915	0.531	0.828	0.519
UMC-11						0.462	0.367	0.475	0.403	0.392
